Experimental data published in patent publication US20200329698A1, “COMPOSITIONS FOR ORGAN GRAFT PRESERVATION AND METHODS OF USE” (Nobilis Therapeutics, Inc., priority 2019, published 2020).

What was measured:
[1] = system: Fischer rats renal grafts from cardiac arrest donation; experiment: DCD renal graft preservation with xenon or argon with or without dexmedetomidine, then transplantation; format: in vivo, rat; conditions: UW saturated with 70% gas, with or without Dex 0.1 nM; day 8 after transplantation
Experimental: Briefly, after intravenous heparinization (300 U) in 1 ml saline via the penile vein under 2% isoflurane anaesthesia, cardiac arrest was induced by cervical dislocation (schedule 1 killing). The cessation of the heart beat was observed within 3-5 minutes and donor animals were kept for 40 minutes on a 37° C. pad.
This protocol was obtained from our pilot studies and the both graft injury and a therapeutic window can be achieved. The preserving solution was saturated with 70% nitrogen, xenon or argon gas, combined with or without dexmedetomidine 0.1 nM [32]. […] Macrophage infiltration and renal fibrosis were attenuated by the treatments on day 16 after surgery (FIGS. 12A-12D).
With respect to FIGS. 10A-10D, Fischer rats renal grafts from cardiac arrest donation were stored with UW preserving solution at 4° C., saturated with nitrogen or xenon or argon gas (70% N2 or Xe or Ar and 5% CO2 balanced with O2 supplemented with Dex), machine perfused for 4 hours and stored until 24 hours. Normal kidney graft serves as naive control (NC), grafts treated with preserving solution only served as sham, and the grafts were then transplanted into Lewis recipient and finally harvested day 8 after transplantation. (FIG. 10A) Renal morphology were assessed by H and E staining (n=4-6) and (FIG. 10B) evaluated by the injury scoring system. (FIG. 10C) TUNEL staining of renal tubules in renal cortex. […]

[2] = system: ex vivo renal grafts from brain death or cardiac arrest donors; experiment: Rat hypothermic machine perfusion model; conditions: exposure of ex vivo grafts prior to engraftment
[3] = system: brain; conditions: 70% argon; cited from earlier work
[4] = system: renal grafts from live donor; conditions: preserving solution saturated with argon; cited from earlier work
[5] = system: Lewis rat lung grafts extracted after cardiac death; experiment: DCD lung graft stored in Dex-saturated UW after donor treatment with Nrf-2 siRNA or atipamezole; conditions: given to donor before extraction
Experimental: Nrf-2 siRNA or scrambled siRNAs (negative control) (QIAGEN®) were dissolved in siRNA suspension buffer and further diluted in RNase-free PBS before use. siRNA targeting rat Nrf-2 (sc-37030, SANTA CRUZ BIOTECHNOLOGY®, USA) was administered through hydrodynamic tail vein injection. Nrf-2 or scrambled siRNA ([…] in 10 ml of PBS) was rapidly injected (within 30 s) via a tail vein under anaesthesia and allow to recover for 24 h before the experiment. Atipamezole (α2-adrenergic antagonist, SIGMA-ALDRICH®, St. Louis, Mo., USA, 250 μg/kg, i.p.) was administered 10 minutes graft extraction.
In order to further investigate the mechanisms underlying the protective effects of dexmedetomidine on lung grafts, Nrf-2 siRNA and atipamezole treatment was administered donor before lung grafts extraction. The grafts were subsequently stored in Dex-saturated UW solution. TLR-4 and RIP3 immunofluorescent labelling was performed in lung grafts, with and without Nrf-2 siRNA (FIG. 9A), and with and without atipamezole treatment (FIG. 9B). […] 3-nitrotyrosine and 4-hydroxynonenal immunofluorescent labelling was performed in lung alveolar cells at CI 16 h, with and without Nrf-2 siRNA or with and without atipamezole treatment (FIGS. 9E and 9F) at CI 16 h. […] Together, these findings indicate that upregulation of the Nrf-2 and α2 adrenergic pathways are both critical to the protective effects of Dex on lung grafts. […] With respect to FIGS. 9A-9K, Lewis rat lung grafts were extracted after cardiac death and stored in 4° C. UW solution saturated with Dex (0.1 nM) or without Dex (Vehicle) for 16 hours (lung graft cold ischemia CIO 16 hr). Nrf-2 siRNA or atipamezole was given to the donor before graft extracting. Dual labelling of Rip-3 (red) and TLR-4 (green) in lung tissue after (FIG. 9A) SiRNA treatment or (FIG. 9B) atipamezole. Fluorescent intensity of (FIG. 9C) RIPK3 and (FIG. 9D) TLR-4 in lung tissue. The expression of 3-nitrotyrosine and 4-hydroxynonenal was assessed with immunofluorescent labelling after (FIG. 9E) SiRNA treatment or (FIG. 9F) Atipamezole. Fluorescent intensity of (FIG. 9G) 3-nitrotyrosine and (FIG. 9H) 4-hydroxynonenal. Nuclei were counterstained with 4′,6-diamidino-2-phenylindole (DAPI) (blue). (FIGS. 9I and 9K) Histology (haematoxylin and eosin staining) of the lung graft and injury score. (FIG. 9J) HMGB-1 in lung graft tissue, were assessed by ELISA. Scale bar: 50 μm. […] NC: naïve control, rCI: renal graft cold ischemia. HMGB, high mobility group box 1 protein; CI, cold ischaemia; NC, naïve control; TLR-4, toll-like receptor 4.

[6] = system: ex-vivo rat kidney; conditions: cited from earlier work
[7] = system: isografts, weak immune-allografts and strong immuno-allografts; conditions: xenon to living donor before graft retrieval or to recipient after engraftment; cited from earlier work
[8] = system: kidney; conditions: in vivo; cited from earlier work
[9] = ice-cold Soltran saturated with 70% Xe, 24 hrs, vs 70% N2

Compound: [Ar] [argon]
- renal architecture during prolonged cold preservation (H&E injury score, TUNEL) [1]: preserved the renal architrave
- organ graft injury, histologically and functionally [2]: prevent organ graft injury
- neuroprotection [3]: neuro-protective
- preservation of renal grafts against hypothermic-ischemic injury [4]: superior in preserving renal grafts

Compound: CCC1(c2cnc[nH]2)Cc2ccccc2C1 [atipamezole, Atipamezole]
- 3-nitrotyrosine expression (fluorescent intensity) ([5]; CI 16 h): significant increase
- 4-hydroxynonenal expression (fluorescent intensity) ([5]; CI 16 h): significant increase
- HMGB-1 expression in lung graft tissue (ELISA) ([5]; CI 16 hr): significantly increased
- expression of RIP3 (fluorescent intensity) ([5]; CI 16 hr): enhanced expression
- lung injury scoring ([5]; CI 16 hr): significant increase
- lung morphology (H&E) ([5]; CI 16 hr): deteriorated significantly
- expression of TLR-4 (fluorescent intensity) ([5]; CI 16 hr, p<0.01): enhanced expression

Compound: [Xe] [xenon]
- renal architecture during prolonged cold preservation (H&E injury score, TUNEL) [1]: preserved the renal architrave
- organ graft injury, histologically and functionally [2]: prevent organ graft injury
- delayed graft function ([6]; after engraftment): reduced
- renal inflammation ([6]; after engraftment): reduced
- fibrosis ([6]; day 8 after surgery): significantly reduced
- macrophage infiltration ([6]; day 8 after surgery): significantly reduced
- expression of Bcl-2 [6, 9]: enhanced expression
- expression of HSP-70 [6, 9]: enhanced expression
- tubular cell death ([6]; twenty-four hrs after engraftment): significantly decreased
- morphological structure of the ex-vivo rat kidney ([6]; xenon-containing Soltran solution): well preserved
- early graft injury [7]: protected against early graft injury
- graft survival [7]: prolonged graft survival
- kidney warm ischemic injury [8]: protect against kidney warm ischemic injury
